The values that follow come from patent US7186710B2, “Phthalazinones” (Altana Pharma AG, priority 2001, dated 2007).

The structures appear in SMILES notation.

The target in one data set is T1, PDE7A1 (Homo sapiens, UniProt Q13946).
T1 construct: made in house; host or cells: SF21 insect cells (baculovirus, pCRBac)
In words: Inhibition of PDE7 activity, [3H]cAMP SPA enzyme assay with recombinant PDE7A1. It counts as biochemical. The conditions noted are these: recombinant PDE7A1 from SF21 insect cells, 0.5 μM cAMP; for IC50: read-out: PDE7 −logIC50 (converted). The source says: (§1) Method for Measuring Inhibition of PDE4 and PDE7 Activities
(§2) The cDNA for PDE7A1 (Genebank Acc. No. L12052) was isolated, using RT-PCR, from total cellular RNA derived from the T cell line CCRF-CEM and cloned into the cloning vector pCR2.1 (invitrogen, Groningen, NL) under standard conditions (the manufacturer's instructions). For expression in insect cells, the cDNA was subcloned into the baculo expression vector pCRBac (invitrogen, Groningen, NL). The cDNA for PDE4D3 was a gift of Marco Conti (Stanford University, USA). The ORF (Genebank Acc. No. U50159) was cut from the original pCMV5 vector with the restriction enzymes EcoRI and XbaI and subcloned in the expression vector pBacPak9 (Clontech, Palo Alto).
(§3) The recombinant baculoylrus was prepared by means of homologous recombination in SF9 insect cells. The expression plasmids were cotransfected with Bac-N-Blue (invitrogen, Groningen, NL) or Baculo-Gold DNA (Pharmingen, Hamburg) using a standard protocol (Pharmingen, Hamburg). Wt virus-free recombinant virus supernatants were selected using plaque assay methods. After that, high-titre virus supernatants were prepared by amplifying 3 times. PDEs were expressed in SF21 cells by infecting 2×10^6 cells/ml with an MOI (multiplicity of infection) between 2 and 5 in serum-free SF900 medium (Life Technologies, Paisley, UK). The cells were cultured at 28° C. for 48 hours, after which they were pelleted for 5–10 min at 1000 g and 4° C. In the case of PDE7A1 cells were cultured in spinner flasks at a rotational speed of 75 rpm.
(§4) The SF21 insect cells were resuspended, at a concentration of approx. 10^7 cells/ml, in ice-cold (4° C.) homogenization buffer (20 mM Tris, pH 8.2, containing the following additions: 140 mM NaCl, 3.8 mM KCl, 1 mM EGTA, 1 mM MgCl2, 1 mM β-mercaptoethanol, 2 mM benzamidine, 0.4 mM Pefablock, 10 μM leupeptin, 10 μM pepstatin A, 5 μM trypsin inhibitor) and disrupted by ultrasonication. The homogenate was then centrifuged for 10 min at 1000×g and the supernatant was stored at −80° C. until subsequent use (see below). The protein content was determined by the Bradford method (BioRad, Munich) using BSA as the standard.
(§5) PDE7A1 and PDE4D3 activities were inhibited by the said compounds in a modified SPA (scintillation proximity assay) test, supplied by Amersham Pharmacia Biotech (see procedural instructions “phosphodiesterase [3H]cAMP SPA enzyme assay, code TRKQ 7090”), carried out in 96-well microtitre plates (MTP's). The test volume is 100 μl and contains 20 mM Tris buffer (pH 7.4), 0.1 mg of BSA (bovine serum albumin)/ml, 5 mM Mg^2+, 0.5 μM cAMP (including about 50,000 cpm of [3H]cAMP), 2 μl of the respective substance dilution in DMSO and sufficient recombinant PDE (1000×g supernatant, see above) to ensure that 15–20% of the cAMP is converted under the said experimental conditions. After a preincubation of 5 min at 37° C., the reaction is started by adding the substrate (cAMP) and the assays are incubated for a further 15 min; after that, they are stopped by adding SPA beads (50 μl). In accordance with the manufacturer's instructions, the SPA beads had preylously been resuspended in water and then diluted 1:3 (v/v); the diluted solution also contains 3 mM IBMX. After the beads have been sedimented (>30 min), the MTP's are analyzed in commercially available measuring appliances and the corresponding IC50 values of the compounds for the inhibition of PDE activities are determined from the concentration-effect curves by means of non-linear regression.

A further data set has as its target T2, PDE4D3 (Homo sapiens, UniProt Q08499).
T2 construct: made in house; host or cells: SF21 insect cells (baculovirus, pBacPak9)
Nature of the data set: Inhibition of PDE4 activity, [3H]cAMP SPA enzyme assay with recombinant PDE4D3. The class given is biochemical. The conditions noted are these: recombinant PDE4D3 from SF21 insect cells, 0.5 μM cAMP; for IC50: read-out: PDE4 −logIC50 (converted).
Description: as §1, §2, §3, §4, §5

T2 sequence (Q08499 1-673 isoform Q08499-2): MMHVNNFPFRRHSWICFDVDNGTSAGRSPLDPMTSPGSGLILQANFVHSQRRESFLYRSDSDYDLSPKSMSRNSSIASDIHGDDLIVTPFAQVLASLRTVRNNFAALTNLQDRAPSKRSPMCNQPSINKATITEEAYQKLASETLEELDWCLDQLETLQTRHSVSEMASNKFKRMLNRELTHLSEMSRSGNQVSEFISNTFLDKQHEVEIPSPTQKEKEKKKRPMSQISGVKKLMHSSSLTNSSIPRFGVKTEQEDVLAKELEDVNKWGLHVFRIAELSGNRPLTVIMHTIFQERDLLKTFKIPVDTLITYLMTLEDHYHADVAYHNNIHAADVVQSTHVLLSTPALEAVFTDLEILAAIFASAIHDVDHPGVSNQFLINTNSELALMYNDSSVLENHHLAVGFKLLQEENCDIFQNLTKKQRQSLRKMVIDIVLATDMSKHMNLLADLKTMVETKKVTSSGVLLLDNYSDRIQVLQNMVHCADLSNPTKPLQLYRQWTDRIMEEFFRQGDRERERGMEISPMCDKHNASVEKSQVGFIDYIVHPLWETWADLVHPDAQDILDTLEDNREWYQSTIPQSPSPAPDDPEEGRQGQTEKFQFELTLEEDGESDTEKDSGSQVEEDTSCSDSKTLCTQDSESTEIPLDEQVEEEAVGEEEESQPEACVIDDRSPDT
T1 sequence (Q13946 whole entry): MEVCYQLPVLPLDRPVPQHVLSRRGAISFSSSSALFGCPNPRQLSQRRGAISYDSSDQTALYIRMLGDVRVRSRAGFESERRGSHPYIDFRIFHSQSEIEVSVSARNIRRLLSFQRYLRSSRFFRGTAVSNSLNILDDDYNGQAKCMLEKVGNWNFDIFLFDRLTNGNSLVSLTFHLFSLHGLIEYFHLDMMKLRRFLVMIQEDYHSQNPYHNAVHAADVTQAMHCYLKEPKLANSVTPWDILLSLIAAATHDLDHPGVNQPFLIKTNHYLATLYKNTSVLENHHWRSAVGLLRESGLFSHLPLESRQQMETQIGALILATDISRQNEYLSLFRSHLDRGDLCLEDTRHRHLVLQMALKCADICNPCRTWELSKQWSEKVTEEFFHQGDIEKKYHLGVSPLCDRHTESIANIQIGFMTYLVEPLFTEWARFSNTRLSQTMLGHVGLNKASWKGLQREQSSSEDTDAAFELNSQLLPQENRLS

As to `COc1ccc(C2=NN(c3ccc(C(=O)O)cc3)C(=O)[C@H]3CC=CC[C@@H]23)cc1F` (relative stereo) [Compound 13, (cis)-4-[4-(3-Fluoro-4-methoxy-phenyl)-1-oxo-4a,5,8,8a-tetrahydro-1H-phthalazin-2-yl]-benzoic acid], the melting point (in general, the temperature, or range, at which the solid turns liquid) lay in the range of 201 to 203 °C. Further, the IC50 at PDE7A1 was 380 nM. For the same molecule, at PDE4D3, the IC50 is 45.7 nM.

As to `COc1ccc(C2=NN(c3cc(C)c4c(C)nn(C)c4n3)C(=O)[C@H]3CC=CC[C@@H]23)cc1Cl` (relative stereo) [Compound 17, (cis)-4-(3-Chloro-4-methoxy-phenyl)-2-(1,3,4-trimethyl-1H-pyrazolo[3,4-b]pyridin-6-yl)-4a,5,8,8a-tetrahydro-2H-phthalazin-1-one], the results for the IC50 on PDE7A1 and at PDE4D3 were 41.7 nM and 21.9 nM, respectively.

`COc1ccc(C2=NN(C3CCN(C(C)=O)CC3)C(=O)[C@@H]3CC=CC[C@H]23)cc1Cl` (relative stereo) [Compound 3, (cis)-2-(1-Acetyl-piperidin-4-yl)-4-(3-chloro-4-methoxy-phenyl)-4a,5.8,8a-tetrahydro-2H-phthalazin-1-one] displayed a melting point of 206 to 208 °C. Also, the IC50 at PDE7A1 was 182 nM. Also, the IC50 at PDE4D3 was 5.62 nM.

In the case of `COc1ccc(C2=NN(C3CCN(Cc4ccncc4)CC3)C(=O)[C@H]3CC=CC[C@@H]23)cc1Cl.Cl` (relative stereo) [Compound 4, (cis)-4-(3-Chloro-4-methoxy-phenyl)-2-(1-pyridin-4-ylmethyl-piperidin-4-yl)-4a,5,8,8a-tetrahydro-2H-phthalazin-1-one hydrochloride], the melting point is 244 °C (dec.). In addition, the IC50 at PDE7A1 was 41.7 nM. The IC50 at PDE4D3 was 2.45 nM.

As to `COc1ccc(C2=NN(C3CCCC3)C(=O)[C@H]3CC=CC[C@@H]23)cc1Cl` (relative stereo) [Compound 10, (cis)-4-(3Chloro-4-methoxy-phenyl)-2-cyclopentyl-4a,5,8,8a-tetrahydro-2H-phthalazin-1-one], the IC50 on PDE7A1 is 18.6 nM; at PDE4D3, 0.776 nM.

`COc1ccc(C2=NN(c3nc(C)ccc3C(F)(F)F)C(=O)[C@H]3CC=CC[C@@H]23)cc1Cl` (relative stereo) [Compound 6]: on PDE7A1, the “PDE7 −logIC50 (mol/l)” value was 7.08. In addition, at PDE4D3, the “PDE4 −logIC50 (mol/l)” value is 7.64.

`COc1ccc(C2=NN(CCCCOc3ccc(C(=O)O)cc3)C(=O)[C@H]3CC=CC[C@@H]23)cc1Cl` (relative stereo) [Compound 12, (cis)-4-{4-[4-(3-Chloro-4-methoxy-phenyl)-1-oxo-4a,5,8,8a-tetrahydro-1H-phthalazin-2-yl]-butoxy}benzoic acid]: the melting point lay within 169 to 171 °C. The IC50 at PDE7A1 is 97.7 nM. On PDE4D3, the IC50 was 6.46 nM.

Consider `COc1ccc(C2=NN(c3ccc(C(=O)N4CCN(CCN(C)C)CC4)cc3)C(=O)[C@H]3CC=CC[C@@H]23)cc1Cl.Cl.Cl` (relative stereo) [Compound 5, (cis)-4-(3-Chloro-4-methoxy-phenyl)-2-(4-{1-[4-(2-dimethylamino-ethyl)-piperazin-1-yl]-methanoyl}-phenyl)-4a,5,8,8a-tetrahydro-2H-phthalazin-1-one dihydrochloride], for which the melting point was 198 to 201 °C. Besides, the IC50 at PDE7A1 was 66.1 nM. For the same molecule, the IC50 at PDE4D3 is 13.8 nM.

Regarding `COc1ccc(C2=NN(c3ccc(C(=O)O)cc3)C(=O)[C@H]3CC=CC[C@@H]23)cc1Cl` (relative stereo) [Compound 14, (cis)-4-{4-(3-chloro-4-methoxyphenyl)-1-oxo-4a,5,8,8a-tetrahydro-1H-phthalazin-2-yl}-benzoic acid], the melting point was 222 to 224 °C.

Take `COc1ccc(C2=NN(C3CCN(C(=O)N4CCOCC4)CC3)C(=O)[C@H]3CC=CC[C@@H]23)cc1Cl` (relative stereo) [Compound 1, (cis)-4-(3-Chloro-4-methoxy-phenyl)-2-[1-(1-morpholin-4-yl-methanoyl)-piperidin-4-yl]-4a,5,8,8a-tetrahydro-2H-phthalazin-1-one]: the IC50 is 22.9 nM at PDE7A1 and 2.29 nM on PDE4D3.

The molecule `COc1ccc(C2=NN(C3CCN(S(=O)(=O)c4ccc(C)cc4)CC3)C(=O)[C@H]3CC=CC[C@@H]23)cc1Cl` (relative stereo) [Compound 2, (cis)-4-(3-Chloro-4-methoxy-phenyl)-2-[1-(toluene-4-sulfonyl)-piperidin-4-yl]-4a,5,8,8a-tetrahydro-2H-phthalazin-1-one] showed a melting point of 198 to 199 °C. Also, the IC50 at PDE7A1 is 107 nM. For the same molecule, on PDE4D3, the IC50 is 3.98 nM.

As to `COc1ccc(C2=NN(c3ccc4c(c3)COC4=O)C(=O)[C@H]3CC=CC[C@@H]23)cc1Cl` (relative stereo) [Compound 8, (cis)-4-(3-Chloro-4-methoxy-phenyl)-2-(1-oxo-1,3-dihydro-isobenzofuran-5-yl)-4a,5,8,8a-tetrahydro-2H-phthalazin-1-one], the melting point was 212 to 213 °C. Further, the IC50 on PDE7A1 was 89.1 nM. Moreover, at PDE4D3, the IC50 is 8.91 nM.

Take `COc1ccc(C2=NN(c3nc(-c4cccs4)ns3)C(=O)[C@H]3CC=CC[C@@H]23)cc1Cl` (relative stereo) [Compound 18, (cis)-4-(3-Chloro-4-methoxy-phenyl)-2-(3-thiophen-2-yl-[1,2,4]thiadiazol-5-yl)-4a,5,8,8a-tetrahydro-2H-phthalazin-1-one]: the IC50 on PDE7A1 was 77.6 nM; at PDE4D3, 23.4 nM.

In the case of `COc1ccc(C2=NN(c3ccc4ncsc4c3)C(=O)[C@@H]3CC=CC[C@H]23)cc1Cl` (relative stereo) [Compound 7, (cis)-2-Benzothiazol-6-yl-4-(3-chloro-4-methoxy-phenyl)-4a,8,8a-tetrahydro-2H-phthalazin-1-one], the melting point was in the range of 156 to 157 °C. Also, at PDE7A1, the IC50 is 105 nM. In addition, the IC50 at PDE4D3 is 8.13 nM.

In turn, `COc1ccc(C2=NN(C3CCN(C(=O)N4CCNC4=O)CC3)C(=O)[C@H]3CC=CC[C@@H]23)cc1Cl` (relative stereo) [Compound 22, cis-4-(3-Chloro-4-methoxy-phenyl)-2-{1-[1-(2-oxo-imidazolidin-1-yl)-methanoyl]-piperidin-4-yl}-4a,5,8,8a-tetrahydro-2H-phthalazin-1-one] had a melting point of 216 to 218 °C.

Take `COc1ccc(C2=NN(CCCCn3ccnc3)C(=O)[C@H]3CC=CC[C@@H]23)cc1Cl.Cl` (relative stereo) [Compound 11, (cis)-4-(3-Chloro-4-methoxy-phenyl)-2-(4-imidazol-1-yl-butyl)-4a,5,8,8a-tetrahydro-2H-phthalazin-1-one hydrochloride]: the melting point was in the range of 217 to 219 °C. Besides, the IC50 on PDE7A1 is 269 nM. The IC50 on PDE4D3 was 0.891 nM.

Regarding `COc1ccc(C2=NN(c3ccc4[nH]ncc4c3)C(=O)[C@H]3CC=CC[C@@H]23)cc1Cl.Cl` (relative stereo) [Compound 9, (cis)-4-(3-Chloro-4-methoxy-phenyl)-2-(1H-indazol-5-yl)-4a,5,8,8a-tetrahydro-2H-phthalazin-1-one hydrochloride], the melting point lay within 196 to 197 °C. In addition, on PDE7A1, the IC50 is 28.8 nM. Further, the IC50 at PDE4D3 was 2.57 nM.
